Assay [1] deals with human umbilical vein endothelial cells (HUVECs). The assay is described as follows: HUVEC proliferation assay (WST-1), 2- and 4-day, 5,000 cells per well. Type of assay: cell-based. The settings on record: for concentration-response profile in words: 2- and/or 4-day assay; for anti-proliferative activity in words at 0.01 μg/ml: 0.01 μg/ml peptide. The procedure: The effect of the various peptides on cell proliferation was assayed, by administering the peptides to human umbilical vein endothelial cells (HUVECs) in culture. 45 peptides belonging to four distinct families of proteins including the thrombospondin-1 containing proteins, the C-X-C chemokines, collagen derived peptides and peptides from tissue inhibitors of metalloproteinases were tested. The potency of each of the peptides was tested using the proliferation assay at 2 days and 4 days following administration of the peptides and a similar assay using a different cell density at 3 days. In the four-day experiments, the cell medium was changed after the second day of incubation and the peptide was replaced at the initial concentration together with the medium. TNP-470 is an antiangiogenic compound that was used as a positive control for assessing anti-angiogenic efficacy. The activity of each polypeptide was, therefore, expressed as a percentage of TNP-470 activity, i.e., the optical density obtained experimentally is scaled such that the negative control is 0% and the positive control is 100% as explained below (FIG. 4). Each plate included a well having HUVEC cells that received 0.1 μg/ml TNP-470. For example, a peptide having the same effect on endothelial cell proliferation would have 100% of the activity of TNP-470. Note that activity could exceed 100%. In this assay, the effects of the predicted anti-angiogenic fragments on the ability of HUVECs to proliferate was characterized. […] A commonly used methodology to test for proliferation is to monitor the viability and metabolic activity of endothelial cells, in the presence of the anti-angiogenic fragments at different concentrations and various time steps. The cell proliferation reagent WST-1 was used as a substrate/assay to measure the metabolic activity of viable cells. WST-1 is a colorimetric, non-radioactive assay and can be performed in a microplate. It is suitable for measuring cell proliferation, cell viability or cytotoxicity. The assay is based on the reduction a red tetrazolium salt, WST-1, by viable, metabolically active, cells to form the yellow formazan crystals soluble in the cell medium. […] The cells are cultured described above. Once cells have reached 80% confluence they are trypsinized and resuspended in EGM-2. The cell density is estimated using a hemocytometer. All of the endothelial cells used were from passage 4 to passage 8. The proliferation assay involved two steps. During the first step the cells, approximately 5,000 cells per well for a 96-well plate, were seeded without any extracellular matrix substrate on the wells overnight (8 hours). The initial cell culture medium was removed using a multichannel pipetor and the candidate peptides were applied. A logarithmic scale of four different concentrations of 0.01 μg/ml, 0.1 μg/ml, 1 μg/ml and 10 μg/ml of each peptide was used. Each of the concentrations was tested in quadruplicate. The viability of the cells was challenged at 2 and 4 days upon the application of the peptide. As a positive control for decreased viability, 0.1 μg/ml of TNP-470 (O-(chloro-acetyl-carbamoyl) fumagillol, a synthetic analogue of fumagillin; TNP-470 was provided by NCI, was provided along with the medium, and as a negative control for normal viability, the cells were cultured without the addition of any agent. The cells were then incubated with 10 μl per well of the red WST-1 reagent for approximately 2 to 4 hours. During this incubation period, viable cells converted, in their mitochondria, the red WST-1 to the yellow formazan crystals which dissolve in the medium. The second step of the assay involved the quantification of the changes in proliferation which was performed by measuring the change in color after lysing the cells. The samples were read using the ELISA plate reader Victor3 V (Perkin Elmer) at a wavelength of […]. The amount of color produced is directly proportional to the number of viable cells. […]

For assay [2] the test system is unchanged. Briefly: HUVEC proliferation assay (WST-1), 3-day, 2,000 cells per well. The format is cell-based. The following applies: 3-day assay; for anti-proliferative activity in words at high peptide concentration: high/highest applied concentration (30 μg/ml where stated); for anti-proliferative activity in words: overall; for anti-proliferative activity (maximum or stated level), scaled so that TNP-470 = 100%: 0.01-30 μg/ml. The protocol:
In addition to the 2 and 4 day proliferation experiment where 5,000 cells per well were seeded, the effects of the peptides on the proliferating ability of HUVECs were also studied using cells seeded at a density of 2,000 cells per well. This lower cell seeding density allowed the experiment to be extend for an additional day without changing the cell medium. The effects of the peptides when applied to the cells for 3 consecutive days is also reported herein. The proliferation assay again involved two steps. During the first step 2,000 cells per well for a 96-well plate were seeded without any extracellular matrix substrate on the wells overnight (8 hours). The initial cell culture medium was removed using a multichannel pipetor. To synchronize the cells, the cells were serum starved for 4 hours and the candidate peptides were applied. During serum starvation the cell culture medium was changed from a “full” medium to the “basal” medium, which contained no growth factors or serum. Serum starvation for 4 hours had no effect on the proliferation of the cells. For this assay, the logarithmic scale of four different concentrations of 0.01 μg/ml, 0.1 μg/ml, 1 μg/ml and 10 μg/ml of peptide was used. In addition, a larger concentration of 30 μg/ml peptide was also applied. Each of the concentrations was again tested in quadruplicate. After the third day of peptide application the WST-1 dye was applied for approximately 2 to 4 hours (usually after 3 hours the color saturates). The proliferation was later tested on the ELISA plate reader as described for the 2 and 4 day assay. Note that the 2- and 4-day and the 3-day protocols differed in that 5,000 cells/well versus 2,000 cells/well seeded, respectively.

Where [3] appears, read: 10 μg/ml peptide, 2- and 4-day assay.
Setting [4] is: 2- and 4-day assay, day not specified or constant throughout the four days.
Setting [5] is: 4 days of peptide application, 0.01-10 μg/ml.
Setting [6] is: 2- and 4-day assay, day not specified.

In the case of “NGRKACLNPASPIVKKIIEKMLNS [SEQ ID NO: 102, GRO-α/CXCL1 AAP35526.1: 80-103]”, the “anti-proliferative activity in words at 10 μg/ml” value in assay [1] (setting [3]) is “statistically insignificant”. The “anti-proliferative activity (maximum or stated level), scaled so that TNP-470 = 100%” value in assay [1] (setting [4]) came out at 15%. In addition, the “anti-proliferative activity in words at high peptide concentration” value in assay [2] was “significantly increased”.
“QPWGTCSESCGKGTQTRAR [SEQ ID NO: 44, Fibulin-6 CAC37630.1: 1688-1706]”: the “concentration-response profile in words” value is on record as “biphasic behavior” in assay [1] and “activity increased with increasing peptide concentration” in assay [2]. In addition, the “peptide concentration at which maximum activity was observed” value in assay [1] (4 days) was found to be 0.01 µg/mL. In addition, the “anti-proliferative activity (maximum or stated level), scaled so that TNP-470 = 100%” value in assay [1] (setting [5]) is about 40%.
Regarding “QPWSQCSATCGDGVRERRR [SEQ ID NO: 64, THSD1 AAQ88516.1: 347-365]”, in assay [1] (setting [6]), the “peptide concentration at which maximum activity was observed” value was found to be 0.01 µg/mL. Also, the “anti-proliferative activity (maximum or stated level), scaled so that TNP-470 = 100%” value in assay [1] (setting [4]) was “approximately 20%”. Further, the “anti-proliferative activity in words at high peptide concentration” value in assay [2] is “substantial increase in activity”.
As to “SAWRACSVTCGKGIQKRSR [SEQ ID NO: 43, Fibulin-6 CAC37630.1: 1574-1592]”, the “anti-proliferative activity (maximum or stated level), scaled so that TNP-470 = 100%” value in assay [1] (setting [4]) came to 30%. The “concentration-response profile in words” value in assay [2] is recorded as “peptide activity increasing as concentration increased”.
In the case of “SEWSDCSVTCGKGMRTRQR [SEQ ID NO: 73, VSGP/F-spondin BAB18461.1: 621-639]”, in assay [1], the “concentration-response profile in words” value is on record as “biphasic profile”. For the same sequence, the “anti-proliferative activity in words” value in assay [1] (2 days of peptide application) is “not statistically significant”; in assay [1] (4 days of peptide application), “notable activity”. The “peptide concentration at which maximum activity was observed” value in assay [1] (4 days) was 0.01 µg/mL. In addition, in assay [2], the “anti-proliferative activity in words at high peptide concentration” value is “increased activity”.
For the sequence “SKWSECSRTCGGGVKFQER [SEQ ID NO: 29, ADAMTS-18 Q8TE60: 596-614]”, the “anti-proliferative activity, TNP-470 = 100%” value in assay [1] (1 μg/ml peptide, 2 days) was determined as 30%. The “anti-proliferative activity in words at 10 μg/ml” value in assay [1] (setting [3]) is on record as “reduced”. Also, the “concentration-response profile in words” value in assay [1] is “biphasic response”. The “anti-proliferative activity in words at high peptide concentration” value in assay [2] is listed as “significantly increased”.
In the case of “SPWSKCSAACGQTGVQTRTR [SEQ ID NO: 39, CILP AAQ89263.1: 156-175]”, the “anti-proliferative activity, TNP-470 = 100%” value in assay [1] (setting [3]) is listed as 5%; in assay [1] (0.01 and 0.1 μg/ml peptide, 2- and 4-day assay), 15%. Further, the “peptide concentration at which maximum activity was observed” value worked out at 1 µg/mL in assay [1] (setting [6]) and 0.1 µg/mL in assay [2]. Besides, the “anti-proliferative activity (maximum or stated level), scaled so that TNP-470 = 100%” value in assay [1] (setting [4]) was about 30%. Besides, the “concentration-response profile in words” value in assay [1] is listed as “biphasic activity”.
For the sequence “SPWSPCSGNCSTGKQQRTR [SEQ ID NO: 65, THSD3 AAH33140.1: 280-298]”, the “anti-proliferative activity in words” value in assay [1] (2- and 4-day assay, overall) is recorded as “did not effect endothelial cell proliferation”; in assay [2] it was “did not effect endothelial cell proliferation”.
Regarding “SPWSPCSTSCGLGVSTRI [SEQ ID NO: 74, WISP-1 AAH74841.1: 221-238]”, the entries for the “anti-proliferative activity in words” value in assay [1] (2 days of peptide application) and in assay [2] were “not statistically significant” and “intermediate levels”, respectively. In assay [1] (setting [5]), the “anti-proliferative activity (maximum or stated level), scaled so that TNP-470 = 100%” value was about 20%. Moreover, the “anti-proliferative activity in words at high peptide concentration” value in assay [2] is “reached higher values”.
Consider “SPWSQCSVRCGRGQRSRQVR [SEQ ID NO: 69, TSRC1 AAH27478.1: 140-159]”, for which the “concentration-response profile in words” value in assay [1] was “biphasic”. The “anti-proliferative activity in words” value is listed as “minimal activity” in assay [1] (2 days of peptide application) and “prominent activity” in assay [1] (4 days of peptide application). Moreover, the “peptide concentration at which maximum activity was observed” value in assay [1] (4 days) was found to be 0.1 µg/mL. Also, the “anti-proliferative activity (maximum or stated level), scaled so that TNP-470 = 100%” value in assay [1] (setting [5]) was 25%. The “anti-proliferative activity in words at high peptide concentration” value in assay [2] was “activity increased”.
Regarding “SPWSQCTASCGGGVQTR [SEQ ID NO: 24, ADAMTS-16 Q8TE57: 1133-1149]”, the “concentration-response profile in words” value in assay [1] was “biphasic response”. For the same sequence, in assay [1] (4 days of peptide application), the “anti-proliferative activity in words” value is on record as “strong activity”. Besides, the “anti-proliferative activity (maximum or stated level), scaled so that TNP-470 = 100%” value in assay [1] (setting [5]) was 30%. Besides, the “anti-proliferative activity in words at high peptide concentration” value in assay [2] was “increase in peptide activity”.
Turning to “TAWGPCSTTCGLGMATRV [SEQ ID NO: 75, WISP-2 AAQ89274.1: 199-216]”, the “anti-proliferative activity in words at 0.01 μg/ml” value in assay [1] (2- and 4-day assay) was “quite potent”. Besides, the “concentration-response profile in words” value in assay [1] is given as “biphasic response”. For the same sequence, in assay [2], the “anti-proliferative activity (maximum or stated level), scaled so that TNP-470 = 100%” value was determined as 20%.
For the sequence “TEWSACNVRCGRGWQKRSR [SEQ ID NO: 71, UNC5D AAQ88514.1: 259-277]”, the “anti-proliferative activity (maximum or stated level), scaled so that TNP-470 = 100%” value in assay [1] (setting [4]) came out at 20%. In addition, in assay [2], the “concentration-response profile in words” value is given as “biphasic” and the “anti-proliferative activity (maximum or stated level), scaled so that TNP-470 = 100%” value was 30%.
On to “TEWSACSKTCGMGISTRV [SEQ ID NO: 41, CTGF CAC44023.1: 204-221]”, for which the “anti-proliferative activity in words” value in assay [1] (2 days of peptide application) is given as “low”; in assay [2], “resembled those observed in the 2-day assay”. In assay [1] (4 days), the “peptide concentration at which maximum activity was observed” value came out at 1 µg/mL. In assay [1] (setting [5]), the “anti-proliferative activity (maximum or stated level), scaled so that TNP-470 = 100%” value was determined as 40%.
Consider “TEWSVCNSRCGRGYQKRTR [SEQ ID NO: 70, UNC5C AAH41156.1: 267-285]”, for which the “anti-proliferative activity in words” value in assay [1] (2 days of peptide application) was “negligible activity”. The “anti-proliferative activity (maximum or stated level), scaled so that TNP-470 = 100%” value in assay [1] (setting [5]) and in assay [2] was 20% in each case. Moreover, the “anti-proliferative activity, TNP-470 = 100%” value in assay [2] (30 μg/ml peptide) came out at 40%. The “peptide concentration at which maximum activity was observed” value in assay [2] was determined as 10 µg/mL.
Take “TEWTACSKSCGMGFSTRV [SEQ ID NO: 46, NOVH AAL92490.1: 211-228]”: the “peptide concentration at which maximum activity was observed” value in assay [1] (setting [6]) stood at 0.01 µg/mL. The “anti-proliferative activity (maximum or stated level), scaled so that TNP-470 = 100%” value in assay [1] (setting [4]) worked out at 20%. Also, the “concentration-response profile in words” value in assay [2] is given as “monotonic increase with concentration”.
As for “TKWTPCSRTCGMGISNRV [SEQ ID NO: 76, WISP-3 CAB16556.1: 191-208]”, the “anti-proliferative activity in words at 0.01 μg/ml” value in assay [1] (2- and 4-day assay) is given as “shows potency”. For the same sequence, the “concentration-response profile in words” value in assay [1] is reported as “biphasic”; in assay [2], “increased significantly as the concentration increased”.
